From PMC10569036

Assay: shake flask on a mixture of 185; loss from the water phase only; LC-Orbitrap peak areas
Conditions: room

| Structure (SMILES) | log partition 1-octanol / HPLC water, unbuffered, traces of methanol / DMSO | log partition butyl acetate / HPLC water, unbuffered, traces of methanol / DMSO | log partition chloroform / HPLC water, unbuffered, traces of methanol / DMSO | log partition cyclohexane / HPLC water, unbuffered, traces of methanol / DMSO | log partition dichloromethane / HPLC water, unbuffered, traces of methanol / DMSO | log partition n-hexane / HPLC water, unbuffered, traces of methanol / DMSO | log partition n-octane / HPLC water, unbuffered, traces of methanol / DMSO | log partition n-undecane / HPLC water, unbuffered, traces of methanol / DMSO | log partition oleylalcohol / HPLC water, unbuffered, traces of methanol / DMSO | log partition toluene / HPLC water, unbuffered, traces of methanol / DMSO |
| --- | --- | --- | --- | --- | --- | --- | --- | --- | --- | --- |
| O=C1OC(=O)C2C3C=CC(C3)C12 (stereo not shown) | -0.9913 log10 | -0.2228 log10 | 0.8465 log10 | -0.9247 log10 | 1.732 log10 | -0.7252 log10 | -1.742 log10 | -1.577 log10 | 0.1202 log10 | 0.5941 log10 |
| COC(=O)c1sccc1S(N)(=O)=O | 1.602 log10 | 1.673 log10 | 1.568 log10 | -1.037 log10 | 1.105 log10 | -1.408 log10 | -1.192 log10 | -1.316 log10 | 0.8181 log10 | 0.3445 log10 |
| CC(=O)Oc1ccc(C(C)=O)cc1 | 0.8444 log10 | 0.4506 log10 | 0.8919 log10 | -0.4431 log10 | 0.1616 log10 | -0.7051 log10 | -0.2813 log10 | -0.7594 log10 | 0.2271 log10 | -0.3508 log10 |
| CCCCCCCCCCCCN1CCCCCC1=O | -0.1202 log10 | -1.099 log10 | 0.3816 log10 | -0.5564 log10 | -0.008559 log10 | -0.8813 log10 | -0.4901 log10 | -0.9092 log10 | -0.7875 log10 | -0.5083 log10 |
| CCCCNS(=O)(=O)c1ccccc1 | 0.09093 log10 | -0.4267 log10 | 0.044 log10 | -0.2649 log10 | -0.02662 log10 | -0.2215 log10 | -0.4356 log10 | -0.4781 log10 | 0.1238 log10 | -0.1107 log10 |
| CC(=O)/C=C/c1ccccc1 | 0.1948 log10 | -0.04199 log10 | -0.02485 log10 | -0.3829 log10 | -0.0685 log10 | -0.3815 log10 | -0.655 log10 | -0.7862 log10 | -0.0887 log10 | -0.2533 log10 |
| Nc1nc(Cl)nc2c1ncn2[C@H]1C[C@H](O)[C@@H](CO)O1 | 0.3863 log10 | -0.3544 log10 | -0.3218 log10 | -1.47 log10 | -0.9957 log10 | -1.176 log10 | -1.209 log10 | -1.567 log10 | -0.4024 log10 | -0.8939 log10 |
| c1ccc(CCCc2ccncc2)cc1 | 0.08604 log10 | -0.4137 log10 | -0.0585 log10 | -0.2421 log10 | 0.1807 log10 | -0.1192 log10 | -0.1298 log10 | -0.4578 log10 | -0.2233 log10 | -0.2508 log10 |
| CCCN(CCC)c1c([N+](=O)[O-])cc(C(C)C)cc1[N+](=O)[O-] | 1.667 log10 | 0.7238 log10 | 0.1749 log10 | -0.3058 log10 | -0.415 log10 | 0.4636 log10 | -0.4473 log10 | -0.3356 log10 | 0.7657 log10 | 0.0275 log10 |
| CCCCCCC(O)CCCCCCCCCCC(=O)OC (stereo not shown) | -0.3995 log10 | -0.5958 log10 | -0.2735 log10 | -0.4754 log10 | -1.47 log10 | -1.341 log10 | -1.53 log10 | -1.718 log10 | -0.7143 log10 | -1.19 log10 |
| CC(=O)Nc1ccc(C)cc1C | 0.5136 log10 | 0.7692 log10 | 0.52 log10 |  | 0.8573 log10 |  |  |  | 0.7926 log10 | 0.01564 log10 |
